Measurements from ChEMBL document CHEMBL3804787, “Electrophilic Oxidation and [1,2]-Rearrangement of the Biindole Core of Birinapant” (ACS Med Chem Lett, 2016).

Columns and labels:
[1] = Drug level using Birinapant assessed as compound formation by HPLC analysis; type: physicochemical
[2] = Drug degradation of the compound at 40 degC/75% RH measured after 1 year by HPLC analysis; type: physicochemical; conditions: read-out: Drug degradation

Row | Drug metabolism [1] | degraded at 8766 h [2] | Compound
1 | metabolite_detected |  | CC[C@H](NC(=O)[C@H](C)NC)C(=O)N1C[C@@H](O)C[C@H]1Cc1c([C@@]2(C[C@@H]3C[C@H](O)CN3C(=O)[C@H](CC)NC(=O)[C@H](C)NC)Nc3cc(F)ccc3C2=O)[nH]c2cc(F)ccc12
2 | metabolite_detected |  | CC[C@H](NC(=O)[C@H](C)NC)C(=O)N1C[C@@H](O)C[C@H]1Cc1c([C@]2(C[C@@H]3C[C@H](O)CN3C(=O)[C@H](CC)NC(=O)[C@H](C)NC)Nc3cc(F)ccc3C2=O)[nH]c2cc(F)ccc12
3 | metabolite_detected |  | CC[C@H](NC(=O)[C@H](C)NC)C(=O)N1C[C@@H](O)C[C@H]1C[C@@]1(O)C(c2[nH]c3cc(F)ccc3c2C[C@H]2C[C@@H](O)CN2C(=O)[C@@H](CC)NC(=O)[C@@H](C)NC)=Nc2cc(F)ccc21
4 | metabolite_detected |  | CC[C@H](NC(=O)[C@H](C)NC)C(=O)N1C[C@@H](O)C[C@H]1C[C@]1(O)C(c2[nH]c3cc(F)ccc3c2C[C@H]2C[C@@H](O)CN2C(=O)[C@@H](CC)NC(=O)[C@@H](C)NC)=Nc2cc(F)ccc21
5 |  | > 0.1% | CC[C@H](NC(=O)[C@H](C)NC)C(=O)N1C[C@@H](O)C[C@H]1Cc1c(-c2[nH]c3cc(F)ccc3c2C[C@@H]2C[C@H](O)CN2C(=O)[C@H](CC)NC(=O)[C@H](C)NC)[nH]c2cc(F)ccc12 [BIRINAPANT]
